According to patent US6497904B2, “Treatment of oncologic tumors with an injectable formulation of a golgi apparatus disturbing agent” (priority 1998, dated 2002):

How the values were obtained:
Erlich tumors = experiment: In vivo efficacy (delay in tumor growth, T/C) in Balb/C mice carrying Erlich tumors
Experimental: For each of the following examples, the pharmaceutical formulations were prepared just prior to use. Various amounts of brefeldin A (mg of drug/kg animal's body weight) were weighed out and varying amounts of solvent was used to mix the drug. The mixtures were either vortexed (mechanical mixing) or sonicated until drug was either completely soluble or only a very small amount appeared to settle in the bottom the test tube. Chitin was then added and the mixture was sonicated.
Six days following inoculation, the mice normally grew a tumor on each flank, ranging in size from 100 to 120 mm^3. The mice (average weight=25 g) were randomized and separated into groups. Each tumor was then measured and the tumor volume calculated and recorded. In experimental groups, one tumor on each mouse was treated with the appropriate agent (drug versus drug in formulation) with an injection volume of 50 ul using a 22G½ needle. The control group was left untreated.
Antitumor activity was determined by inhibition of tumor growth and survival rate. Each tumor was measured two to three times per week. In nude mice, tumors were measured for 10 days or until mice survived. In Balb/C tumors were measured for up to 20 days following treatment. The volume of the tumor was calculated and recorded. Tumor volume data is analyzed by using simple regression model. […]
Balb/C mice are divided into groups and given treatments according to Table 4. Mice are observed daily to evaluate lethal toxicity and tumors are measured on alternate days for 20 days. […]

Balb/C mice = experiment: Survival of Balb/C mice following treatment (deaths due to toxicity); type: in vivo; details: Example 3
Source text: Balb/C mice are divided into groups and given treatments according to Table 3. Mice are observed daily for 25 days for deaths due to toxicity.
Balb/C mice are divided into groups and given treatments according to Table 7.

C[C@H]1CCC/C=C/[C@@H]2C[C@H](O)C[C@H]2[C@H](O)/C=C/C(=O)O1 [brefeldin A]
T/C ratio of delay in tumor growth (Erlich tumors; Example 2, groups 5, 6, and 7, given with the solvent (DMA 5-20 μl), no chitin): 1.25-1.75
T/C ratio of delay in tumor growth (Erlich tumors; Example 2, groups 8, 9, and 10, delivered with DMA (5-20 μl) and chitin): 2.00-2.75
T/C ratio of delay in tumor growth (Erlich tumors; Example 4, groups 4, 5, and 6, BFA 2 mg delivered with DMA and chitin): 2.50-2.85
T/C ratio of delay in tumor growth (Erlich tumors; Example 4, groups 7, 8, and 9, decreased dose of brefeldin A (0.5 mg) with DMA and chitin): 2.30-2.55
toxicity to mice (Balb/C mice; high doses (80 mg/kg and 40 mg/kg) with DMA, groups 4 and 8): most toxic
toxicity to mice (Balb/C mice; when chitin is added to the formulation (with DMA)): less toxicity
